# Data published in patent publication US20050143296A1, “Extraction and utilization of cell growth-promoting peptides from silk protein” (priority 2003, published 2005).
# Entries after “also recorded” stand apart in the source; their conditions may differ. Where a SMILES comes first, the peptide text is derived from it. Where no end group is shown, it is not given here.
# Tests used:
# human skin fibroblasts [1] = assay: Growth of human skin fibroblasts in dishes coated with silk fractions or peptides (low serum medium with LSGS, Alamer Blue viable cell number); type: cell-based; conditions: for cell growth promotion (in words): human skin fibroblasts in coated dishes, compared to control without peptide; for Growth rate (%): control = 100
# Experimental: Only 1 ml of 70% ethanol was added to dishes for control.
# The cells used were human skin fibroblasts (originating from adult normal skin) purchased (frozen) from Sanko Junyaku Co., Ltd.
# The medium was added at 2 ml per dish, and 80,000 cells were inoculated and cultured for 3 days.
# The medium at 2 ml per dish and Alamer Blue (Iwaki Glass Co.) at 0.1 ml per dish were added and cultured for 2 hours at 37 degrees C., and then the reduced amount of Alamer Blue dye calculated from the absorbances at 570 nm and 600 nm was correlated with viable cell number.
# Control dishes contained only 70% ethanol at 1 ml, followed by air-drying.
# About 1 mg each of the synthetic peptides was dissolved in 200 μl of PBS.
# The cells used were human skin fibroblasts (originating from adult normal skin) purchased (frozen) from Sanko Junyaku Co. Ltd.
# The culture medium used was the low serum culture medium for human skin fibroblast growth purchased from Kurabo Industries Ltd.
# The medium was added at 2 ml per dish, and ca. 80,000 cells were inoculated and cultured for 3 days.
# Then, 0.1 ml of Alamer Blue (Iwaki Glass Co.) was added and cultured for 2 hours at 37 degrees C., and the reduced amount of Alamer Blue calculated from the absorbances at 570 nm and 600 nm was correlated with viable cell number.
# human skin fibroblasts [2] = assay: as above; type: cell-based; conditions: for Growth rate (%): Table 3, gel filtration peaks of A-6, cultured for 2 days, control = 100; for growth rate relative to the growth of the control: after 2-day culture (Table 3)
# [3] = Dissolution of synthetic peptides in PBS for coating; type: physicochemical; conditions: about 1 mg peptide in 200 μl of PBS
# Experimental: About 1 mg each of the synthetic peptides was dissolved in 200 μl of PBS. The dissolved peptide solutions were diluted with 70% ethanol to adjust to 0.025% and 0.0025% concentrations, and 1 ml each of these solutions were put in dishes and dried.
# 70% ethanol, put in a dish and dried.
# human skin fibroblasts [4] = assay: Adhesion of human skin fibroblasts after 5 hours in peptide-coated dishes (Medium 106S without LSGS); type: cell-based; conditions: Table 8; 5 hour-culture; peptide 0.025 μg/cm^2; no LSGS; no peptide = 100
# Experimental: (§1) This method partly differs from the method in (3) Cell culture of Example 1.
# (§2) In the present cell culture, the cells used were human skin fibroblasts (originating from adult normal skin) purchased (frozen) from Sanko Junyaku Co. Ltd.
# (§3) The culture medium used was the low serum culture medium for human skin fibroblast growth purchased from Kurabo Industries Ltd. (Medium 106S 500 ml).
# (§4) The medium 106S is a basal medium for skin fibroblasts.
# (§5) LSGS (low serum growth supplement) was not used here.
# In the measurement of adhesion, the cells floating in the medium at 5 hours after inoculation of cells into the medium were removed, and the viable cell number adhering to the bottom of a dish was measured.
# (§6) Besides the cell culture method, coating of peptides on cell culture dishes, measurement of viable cell number with Alamer Blue dye, and the like were carried out as described in Example 1.
# (§7) In this case, the concentration of each peptide coated on dishes was 0.025 μg/cm^2.
# The adhesion rate (%) in the case where no peptide was coated was set at 100.
# human skin fibroblasts [5] = assay: Proliferation of human skin fibroblasts after 3-day culture in peptide-coated dishes (Medium 106S without LSGS); type: cell-based; conditions: Table 9, peptide 0.025 μg/cm^2, no LSGS, no peptide = 100
# Experimental: as §1, §2, §3, §4, §5
# In the measurement of proliferation, the viable cell number at 3 days after inoculation of cells into the medium was measured.
# as §6, §7
# The growth rate (%) in the case where no peptide was coated was set at 100.
# It should be noted that the viable cell number in the control in 3-day culturing increased about 150% during the culture and the control value (100%) was based on the viable cell number after 3-day culture.
# Accordingly, when there was no increase or decrease in the cell number after 3-day culturing, the growth rate would become about 70%.
# [6] = Table 7, peptide concentration 0.025 μg/cm^2, 3-day culture
# [7] = Table 5, synthetic peptide 0.0025%, 3-day culture
# [8] = Table 5, synthetic peptide 0.025%, 3-day culture
# [9] = Table 6, values of Tables 4 and 5 at higher peptide concentration (0.025%)
Compound,Cell growth rate (%) (human skin fibroblasts [1]; [6]),Cell growth rate (%) (human skin fibroblasts [1]; [9]),Adhesion rate (%) (human skin fibroblasts [4]),Growth rate (%) (human skin fibroblasts [5]),also measured
EEEEEE,346,–,–,–,–
VITTDSDGNE [A-6-2],–,–,–,–,cell growth promotion (in words) (human skin fibroblasts [1]): showed cell growth promotion; Growth rate (%) (human skin fibroblasts [2]): 153 ± 2.7%; growth rate relative to the growth of the control (human skin fibroblasts [2]): 1.5 fold
C[C@H](NC(=O)CN)C(=O)NCC(=O)N[C@@H](C)C(=O)NCC(=O)N[C@@H](CO)C(=O)NCC(=O)N[C@@H](C)C(=O)N[C@@H](C)C(=O)N[C@@H](CO)C(=O)NCC(=O)N[C@@H](C)C(=O)NCC(=O)N[C@@H](C)C(=O)NCC(=O)N[C@@H](C)C(=O)NCC(=O)N[C@@H](C)C(=O)NCC(=O)N[C@@H](C)C(=O)NCC(=O)N[C@H](C(=O)O)[C@@H](C)O [SfHC-2] (H-GAGAGSGAASGAGAGAGAGAGT-OH; N-terminus and C-terminus assumed),–,–,–,–,solubility (in words) [3]: difficult to dissolve
"N[C@@H](CCC(=O)O)C(=O)O [Glu, glutamic acid, reference compound]",69,–,–,–,–
Tyr Tyr Tyr Tyr (YYYY; printed: Tyr Tyr Tyr Tyr),156,–,–,–,–
SGAGGSGGYGGYGSDS [AfH2],–,196,149,71,Growth rate (%) (human skin fibroblasts [1]; [7]): 118 ± 14.7%; Growth rate (%) (human skin fibroblasts [1]; [8]): 196 ± 9.4%
Tyr Tyr,113,–,–,–,–
Glu Glu,159,–,–,–,–
Glu Glu Glu Glu (EEEE; printed: Glu Glu Glu Glu),231,–,–,–,–
VETIVLEEDPYGHEDIYEED [AfH6],–,264,135,77,Growth rate (%) (human skin fibroblasts [1]; [7]): 152 ± 9.0%; Growth rate (%) (human skin fibroblasts [1]; [8]): 264 ± 9.0%; cell growth promotion (in words) (human skin fibroblasts [1]): higher cell growth promotion; also recorded: excellent cell growth promotion
DEDEDE,322,–,229,–,–
YYYYYY,239,–,–,–,–
NINDFDED [A-6-6],–,–,–,–,cell growth promotion (in words) (human skin fibroblasts [1]): showed cell growth promotion; Growth rate (%) (human skin fibroblasts [2]): 159 ± 6.6%; growth rate relative to the growth of the control (human skin fibroblasts [2]): 1.5 fold
CC(C)[C@H](NC(=O)[C@H](CO)NC(=O)[C@H](CO)NC(=O)[C@H](C)NC(=O)[C@H](C)N)C(=O)N[C@@H](CO)C(=O)N[C@@H](CO)C(=O)N[C@@H](C)C(=O)N[C@@H](CO)C(=O)N[C@@H](CO)C(=O)N[C@@H](CCCNC(=N)N)C(=O)N[C@@H](CO)C(=O)N[C@@H](Cc1ccc(O)cc1)C(=O)N[C@@H](CC(=O)O)C(=O)N[C@@H](Cc1ccc(O)cc1)C(=O)N[C@@H](CO)C(=O)N[C@@H](CCCNC(=N)N)C(=O)N[C@@H](CCCNC(=N)N)C(=O)N[C@@H](CC(N)=O)C(=O)N[C@H](C(=O)N[C@@H](CCCNC(=N)N)C(=O)N[C@@H](CCCCN)C(=O)N[C@@H](CC(N)=O)C(=O)O)C(C)C [SfHE] (H-AASSVSSASSRSYDYSRRNVRKN-OH; N-terminus and C-terminus assumed),–,–,–,–,solubility (in words) [3]: difficult to dissolve
DEYVDN [AfH5],–,344,234,108,Growth rate (%) (human skin fibroblasts [1]; [7]): 192 ± 11.3%; Growth rate (%) (human skin fibroblasts [1]; [8]): 344 ± 7.7%; cell growth promotion (in words) (human skin fibroblasts [1]): excellent cell growth promotion
RRAGHDRAAGS [AfH4],–,133,151,96,Growth rate (%) (human skin fibroblasts [1]; [7]): 113 ± 4.8%; Growth rate (%) (human skin fibroblasts [1]; [8]): 133 ± 8.7%
"C[C@H](N)C(=O)N[C@@H](C)C(=O)N[C@@H](C)C(=O)N[C@@H](C)C(=O)N[C@@H](C)C(=O)N[C@@H](C)C(=O)N[C@@H](C)C(=O)N[C@@H](C)C(=O)N[C@@H](C)C(=O)N[C@@H](C)C(=O)O [AfH0, Ala Ala Ala Ala Ala Ala Ala Ala Ala Ala]",–,–,–,–,solubility (in words) [3]: hard to dissolve
DDGFVLDGGYDSE [AfH7],–,284,153,89,Growth rate (%) (human skin fibroblasts [1]; [7]): 155 ± 5.3%; Growth rate (%) (human skin fibroblasts [1]; [8]): 284 ± 25.1%; cell growth promotion (in words) (human skin fibroblasts [1]): excellent cell growth promotion
GSGAGGRGDGGYGSGSS [AfH3],–,194,174,69,Growth rate (%) (human skin fibroblasts [1]; [7]): 111 ± 9.0%; Growth rate (%) (human skin fibroblasts [1]; [8]): 194 ± 24.5%
EEYEEY,212,–,–,–,–
GSSGFGPYVAHGGYSGYEYAWSSESDFGT [SfHA],–,316,205,159,"Growth rate (%) (human skin fibroblasts [1]; Table 4, synthetic peptide 0.0025%, 3-day culture): 321 ± 6.2%; Growth rate (%) (human skin fibroblasts [1]; Table 4, synthetic peptide 0.025%, 3-day culture): 316 ± 5.7%"
Glu Glu Glu Glu Glu Glu Glu Glu Glu Glu,254,–,–,–,–
C[C@H](NC(=O)CN)C(=O)NCC(=O)N[C@@H](C)C(=O)NCC(=O)N[C@@H](CO)C(=O)NCC(=O)N[C@@H](C)C(=O)NCC(=O)N[C@@H](C)C(=O)NCC(=O)N[C@@H](CO)C(=O)NCC(=O)N[C@@H](C)C(=O)NCC(=O)N[C@@H](C)C(=O)NCC(=O)N[C@@H](Cc1ccc(O)cc1)C(=O)NCC(=O)N[C@@H](C)C(=O)NCC(=O)N[C@@H](Cc1ccc(O)cc1)C(=O)O [SfHC-1] (H-GAGAGSGAGAGSGAGAGYGAGY-OH; N-terminus and C-terminus assumed),–,–,–,–,solubility (in words) [3]: difficult to dissolve
EYEYEY,207,–,–,–,–
YGWGDGGYGSDS [AfH1],–,396,169,94,Growth rate (%) (human skin fibroblasts [1]; [7]): 179 ± 13.5%; Growth rate (%) (human skin fibroblasts [1]; [8]): 396 ± 4.0%; cell growth promotion (in words) (human skin fibroblasts [1]): excellent cell growth promotion
